Reference: PubChem BioAssay AID1996
≈ marks a conversion by molar mass, not a printed value.

details: buffer; pH 7.4; 200.0 µM

Compound | solubility kinetic
COc1cccc(Nc2nc(-c3cccnc3)cs2)c1 | 1.3 µg/mL (≈ 4.59 µM)
Fc1ccccc1-c1nc(-c2cnccc2C(F)(F)F)no1 | 8 µg/mL (≈ 25.9 µM)
Cc1ccc(C2C(C#N)=C(N)Oc3cc(N)ccc32)cc1 (stereo not given) | 4.4 µg/mL (≈ 15.9 µM)
Cc1cc(=O)oc(C)c1C(=O)Nc1ccc(F)cc1 | > 39.2 µg/mL
Cc1ccc(NC(=O)CNC(=O)c2cccc(Cl)c2)nc1 | 11.7 µg/mL (≈ 38.5 µM)
COCCNc1c2c(nc3ccccc13)CCC2.Cl | > 41.8 µg/mL
CC(C)c1cc(NCc2ccccn2)n2c(nc3ccccc32)c1C#N | < 0.1 µg/mL
Cc1ccccc1N1CCN(S(=O)(=O)c2cccs2)CC1 | 4 µg/mL (≈ 12.4 µM)
C=CCNC(=S)Nc1cccc(N)c1 | > 31.1 µg/mL
CCC1(C)NC(C(=O)O)Cc2c1[nH]c1ccccc21 (stereo not given) | > 38.7 µg/mL
COc1ccc2[nH]c(C)c(C(=O)CN(C)CC3OCCO3)c2c1 | 45.9 µg/mL (≈ 144 µM)
Cc1ccc(-c2ccc(CO)o2)cc1N | > 30.5 µg/mL
O=C(CCCN1C(=O)/C(=C\c2ccccc2)SC1=S)Nc1ccccc1O | < 0.4 µg/mL
CC(C)Nc1nc(Cl)nc(NC2CCCCC2)n1 | 2.7 µg/mL (≈ 10 µM)
CCOC(=O)c1cnn(C)c1NC(=O)c1ccc(Cl)cc1Cl | > 51.3 µg/mL
COc1ccc(-c2nc3n(c(=O)c2C#N)CCS3)cc1OC | 11.9 µg/mL (≈ 37.7 µM)
O=C(Nc1cccc2c1CCCC2)c1cccc(F)c1 | < 0.6 µg/mL
CSCC[C@H](NC(=O)c1cccc(S(=O)(=O)N2CCCCC2)c1)c1nc2ccccc2[nH]1 | 1.6 µg/mL (≈ 3.39 µM)
Cc1cccc(C2N=C(N)Nc3nc4ccccc4n32)c1 (stereo not given) | 34.3 µg/mL (≈ 124 µM)
COc1cc(NC(=S)N(C)CCC#N)c(OC)cc1Cl | 38.9 µg/mL (≈ 124 µM)
O=C(O)c1cccc(NC2=C(N3CCOCC3)C(=O)c3ccccc3C2=O)c1 | > 56.8 µg/mL
C/C(=C\C(=O)Nc1cscc1C)C(=O)O | 28.2 µg/mL (≈ 125 µM)
Cc1ccccc1NC(=O)N1CCCN(c2ccc(C#N)cn2)CC1 | > 50.3 µg/mL
COc1ccc(OC)c(C(O)C(C)N)c1.Cl (stereo not given) | > 37.2 µg/mL

Compound | solubility kinetic
O=[N+]([O-])c1cnc2ccccn12 | 22.1 µg/mL (≈ 135 µM)
Cc1cccc(/C(N)=N/OC(=O)c2ccncc2)c1 | 29.1 µg/mL (≈ 114 µM)
Nc1ncc2c(n1)CCN(c1ccc([N+](=O)[O-])cc1)C2 | 5.9 µg/mL (≈ 21.7 µM)
CC(=O)c1cccc(OCC(=O)OCC(=O)Nc2cc(S(=O)(=O)N3CCCCC3)ccc2C)c1 | 61.5 µg/mL (≈ 126 µM)
CCOc1ccccc1NC(=O)c1cc(=O)[nH]c2ccc(S(=O)(=O)N3CCOCC3)cc12 | 21.4 µg/mL (≈ 46.8 µM)
O=C(O)c1ccc(NC(=O)C(c2ccccc2)c2ccccc2)cc1 | > 49.7 µg/mL
CCOC(=O)c1c(C)[nH]c(C(=O)OCC(=O)NCc2ccc(C)cc2)c1C | 2.6 µg/mL (≈ 6.98 µM)
Cc1noc(C)c1C(=O)N1CCC(CO)(Cc2ccccc2)CC1 | 42 µg/mL (≈ 128 µM)
COC(=O)c1ccc2nc(-c3ccc(S(C)(=O)=O)cc3)cn2c1 | 2 µg/mL (≈ 6.05 µM)
Cc1ccc(O)c(NC(=O)c2onc(C)c2Cl)c1 | 6.2 µg/mL (≈ 23.2 µM)
O=C1CCC(C(=O)Nc2ccc(Cl)cc2)N1 (stereo not given) | > 35.8 µg/mL
CC(=O)c1cccc(-n2c(CCC(=O)O)ccc2-c2ccccc2)c1 | > 50 µg/mL
COc1ccc(Nc2nc(N)c([N+](=O)[O-])c(NC3CCCCC3)n2)cc1 | 0.2 µg/mL (≈ 0.558 µM)
COc1ccc(CN(C(C)=O)c2ccccc2C(=O)O)cc1 | 43.7 µg/mL (≈ 146 µM)
COc1ccc(NC(=O)/C=C/c2cccc(C(F)(F)F)c2)cn1 | 5.3 µg/mL (≈ 16.4 µM)
O=c1[nH]c(S)c(/C=C2\C=Nc3ccccc32)s1 | 9.6 µg/mL (≈ 36.9 µM)
O=C1Nc2ccccc2N2CCCC12 (stereo not given) | 27.5 µg/mL (≈ 146 µM)
COc1ccccc1NC(=O)CC(=O)Nc1ccccc1OC | > 47.2 µg/mL
O=C(NCCc1ccccn1)c1cncc(Br)c1 | > 45.9 µg/mL
CCOC(=O)CSc1nnc(-c2cccnc2)n1C | > 41.7 µg/mL
Cc1cc(OCC(=O)NC2CC2)c2c(C)cc(=O)oc2c1 | > 43.1 µg/mL
O=c1cc(Cl)c2ccccc2n1-c1ccccc1 | > 38.4 µg/mL
CCOc1cccc(C(=O)Nc2ccncc2)c1 | > 36.3 µg/mL
Cc1ccc(C)c(NCC(O)c2ccccc2)c1 (stereo not given) | > 36.2 µg/mL

Compound | solubility kinetic
Cc1ccccc1-n1c2nc(=O)n(C)c(=O)c-2cc2ccccc21 | > 47.6 µg/mL
O=C(CN1CCN(c2ccccn2)CC1)Nc1ccc(F)cc1F | > 49.9 µg/mL
COc1ccc(Cl)cc1NC(=O)CN(C)CC(=O)NCc1ccc(F)cc1 | > 59.1 µg/mL
Cc1ccc([N+](=O)[O-])cc1N(CC(=O)NC1CCCC1)S(C)(=O)=O | > 53.3 µg/mL
Cl.NC(Cc1ccccc1)c1nc2ccccc2[nH]1 (stereo not given) | 40.3 µg/mL
O=C(NC(=S)N1CCOCC1)c1ccccc1Cl | > 42.7 µg/mL
COCCNC(=O)CSc1ccccc1C(=O)O | > 40.4 µg/mL
COC(=O)Cn1cc(C(=O)c2ccccc2F)c2ccccc21 | 32.4 µg/mL (≈ 104 µM)
CC1CCCC(NC(=O)COC(=O)/C=C/c2ccc([N+](=O)[O-])cc2)C1C (stereo not given) | 4.8 µg/mL (≈ 13.3 µM)
Cc1occc1C(=O)NCc1nc(-c2ccc(Cl)cc2)no1 | 37.8 µg/mL (≈ 119 µM)
CC(C)=CC(=O)OCC(=O)Nc1ccc(SC(F)F)cc1 | 10.6 µg/mL (≈ 33.6 µM)
Cc1ccc(S(=O)(=O)NCCNC(=O)CN2CCOCC2)cc1 | 48.8 µg/mL (≈ 143 µM)
O=C(CCC(=O)c1ccccc1)Nc1ccc(C(=O)O)cc1 | > 44.6 µg/mL
Cc1cccc(-n2c(C)c(-c3ccccc3)[nH]c2=S)c1 | 4.5 µg/mL (≈ 16 µM)
COc1cccc(NC(=S)Nc2ccc(F)cc2)c1 | 28.7 µg/mL (≈ 104 µM)
CCOC(=O)c1csc(NC(=O)CN2CCCCC2)n1 | > 44.6 µg/mL
Cc1ccccc1CNCCCSc1ncccn1.Cl | 35.2 µg/mL
Cc1cc(C(=O)OCC(=O)NCc2ccccc2)c2ccccc2n1 | 13.9 µg/mL (≈ 41.6 µM)
O=C(NC1CCCC1)C(c1cc2c(cc1[N+](=O)[O-])OCO2)N1CCCC1 (stereo not given) | 40.6 µg/mL (≈ 112 µM)
NC(=O)CSc1nccn1Cc1ccc2c(c1)OCO2 | > 43.7 µg/mL
COc1ccc(NC(=O)COc2ccccc2)cc1Cl | 34 µg/mL (≈ 117 µM)
Cc1nc(SCC(=O)NC2CCS(=O)(=O)C2)c2c3c(sc2n1)CCC3 (stereo not given) | 7.3 µg/mL (≈ 18.4 µM)
Cc1ccc(NC(=O)c2ccc3nsnc3c2)c(C)c1 | 1.5 µg/mL (≈ 5.29 µM)
Cc1ccc(CC(=O)Nc2ccc(F)c([N+](=O)[O-])c2)cc1C | 4.1 µg/mL (≈ 13.6 µM)

Compound | solubility kinetic
Cc1ccnc(N/C=C/C(=O)c2ccc(Br)cc2)c1 | < 0.3 µg/mL
Cc1cc(C(=O)CCC(=O)Nc2ncccc2C)c(C)s1 | 26.1 µg/mL (≈ 86.3 µM)
O=P(C(=NCCO)NO)(N1CCOCC1)N1CCOCC1 | > 48.3 µg/mL
O=C(COC(=O)C1CC1)Nc1ccc(S(=O)(=O)N2CCOCC2)cc1 | > 55.3 µg/mL
Cc1ccc(C)n1-c1ccc(N2CCOCC2)c([N+](=O)[O-])c1 | 29.3 µg/mL (≈ 97.2 µM)
NC(=O)c1ccc(NC(=O)CN2C(=O)NC3(CCCCCCC3)C2=O)cc1 | > 55.9 µg/mL
O=C(CSCCOc1ccccc1)NCc1ccncc1 | > 45.4 µg/mL
O=C1Nc2ccc(Cl)cc2C12OCCCO2 | 3.2 µg/mL (≈ 13.4 µM)
Cc1ccccc1OCCC(=O)OCC(=O)NC1CCCCC1 | > 47.9 µg/mL
CCOC(=O)c1cnc2c(C)cccc2c1NCCCN1CCOCC1 | > 53.6 µg/mL
COc1ccc(NC(=O)C2CCCCC2)cc1S(=O)(=O)N1CCOCC1 | 51.6 µg/mL (≈ 135 µM)
COc1ccc(C(=O)OCC(=O)NC2CCCC2)c(OC)c1OC | > 50.6 µg/mL
Cc1ccc2oc(=O)n(CCOc3ccccc3)c2c1 | 14.2 µg/mL (≈ 52.7 µM)
CC1CN(C(=O)/C(=C/c2ccco2)NC(=O)c2ccccc2)CC(C)O1 (stereo not given) | > 53.2 µg/mL
O=C(Nc1ccc(F)c(Cl)c1)c1cncs1 | > 38.5 µg/mL
CNS(=O)(=O)c1cccc(C(=O)OC2CCOC2=O)c1 (stereo not given) | > 44.9 µg/mL
CCOc1ccc(C(=O)Nc2cccc3ncccc23)cc1Cl | 1.1 µg/mL (≈ 3.37 µM)
CCCCn1c(O)c(C=NCc2ccc3c(c2)OCO3)c(=O)[nH]c1=O | 6.8 µg/mL (≈ 19.7 µM)
Cc1ccc(C(=O)Nc2ccccc2N2CCCC2)cc1 | 31.4 µg/mL (≈ 112 µM)
O=[N+]([O-])c1cnc(Nc2ccc(Cl)cn2)c([N+](=O)[O-])c1 | 1.8 µg/mL (≈ 6.09 µM)
Cc1cccc2cc(CNCc3ccccc3)c(Cl)nc12 | 3.8 µg/mL (≈ 12.8 µM)
Cl.O=C(CSC1=NCCN1)Nc1cccc([N+](=O)[O-])c1 | > 47.5 µg/mL
Cc1nc(-c2ccc3c(c2)CCC(=O)N3)cs1 | 31.7 µg/mL (≈ 130 µM)
COc1ccc(CNC(=O)N2CCc3ccccc3C2)cc1Cl | 30.4 µg/mL (≈ 91.9 µM)

Compound | solubility kinetic
Cc1ccc(NS(=O)(=O)c2ccc(-c3csc(C)n3)s2)c(C)c1 | < 0.4 µg/mL
O=C(COC(=O)c1cc(Br)ccc1Cl)NC1CCCC1 | 5.6 µg/mL (≈ 15.5 µM)
O=C(c1ccc(OC(F)(F)F)cc1)c1ncc[nH]1 | 37.2 µg/mL (≈ 145 µM)
C[n+]1c(-c2ccccc2)sc2ccccc21.[O-][Cl+3]([O-])([O-])[O-] | > 48.9 µg/mL
N#Cc1c(-c2ccncc2)cc(-c2ccc(F)cc2)nc1N | 0.5 µg/mL (≈ 1.72 µM)
Cc1cnc(=O)[nH]c1SCc1cccc([N+](=O)[O-])c1 | 5.6 µg/mL (≈ 20.2 µM)
Cc1cc(C(=O)Cn2c(CO)nc3ccccc32)c(C)n1C | > 44.6 µg/mL
O=CN1c2ccccc2CSc2ccccc21 | 32.9 µg/mL (≈ 136 µM)
CCOc1ccc(C(=O)Cn2cnc3ccccc3c2=O)cc1 | 8.5 µg/mL (≈ 27.6 µM)
CC(=O)NC12CC3CC(C1)CC(C(=O)OCC(=O)c1cc(C)n(C)c1C)(C3)C2 | 49.5 µg/mL (≈ 128 µM)
O=c1c2[nH]c3ccccc3c2nc2n1CCS2 | 4.5 µg/mL (≈ 18.5 µM)
O=C(NC1CCCC1)c1cc(COc2ccc3ncccc3c2)on1 | 21.2 µg/mL (≈ 62.8 µM)
NC(=O)C1(C(N)=O)OC1c1ccccc1 (stereo not given) | > 30.9 µg/mL
O=C1CCc2cc(S(=O)(=O)NC3CCCCC3)ccc2N1 | > 46.3 µg/mL
O=C(COc1ccccc1[N+](=O)[O-])Nc1cccc(S(=O)(=O)N2CCCC2)c1 | 3.5 µg/mL (≈ 8.63 µM)
CC(=O)Nc1ccc(Oc2ccc3c(c2)C(=O)NC3=O)cc1 | 16.9 µg/mL (≈ 57 µM)
O=C(Nc1nc(-c2ccc(Br)cc2)cs1)c1cccnc1 | < 0.3 µg/mL
Nc1oc2ccccc2c(=O)c1-c1ccc2c(c1)OCO2 | > 42.2 µg/mL
Cc1cc(C)c2cc(C(=O)Nc3ccccc3)[nH]c2c1 | 1.2 µg/mL (≈ 4.54 µM)
COc1ccc(CNC(=S)NCc2ccc(Cl)cc2)cc1OC | 35 µg/mL (≈ 99.8 µM)
COc1cccc(CNc2ccc(C(=O)O)cc2)c1OCc1ccccc1 | > 54.5 µg/mL
COc1ccc(O)c(CN2CCCC(C(=O)c3ccccc3SC)C2)c1 (stereo not given) | 17.7 µg/mL (≈ 47.6 µM)
CC(NC(=O)C(=O)NCC1CCCO1)c1ccccc1 (stereo not given) | > 41.5 µg/mL
CC(Sc1nnc(C(F)(F)F)n1C)C(=O)Nc1ccc(N2CCOCC2)cc1 (stereo not given) | > 62.3 µg/mL
